Our source for the IC50 and IC90 values is ChEMBL document CHEMBL4483862, “Open-source discovery of chemical leads for next-generation chemoprotective antimalarials” (2018).

pIC50: −log10 of the molar value. Some results are limits rather than exact numbers.

The test system of this assay is Plasmodium berghei. In words: Luciferase/luciferin-expressing antifolate-resistant parasites were used to infect a culture of HepG2 cells that were pre-incubated with compounds. Infected hepatocytes emit light due to the luciferase reaction. Assay results are presented as the percent inhibition of light emission compared to control. […]. The following applies: sporozoite; for IC90: read-out: LUCIFERASE INFECTION ASSAY - IC90. The format is functional.

[1] abbreviates: read-out: LUCIFERASE INFECTION ASSAY - IC50.

Broadly, the pIC50 is the IC50 on a negative log10 scale, so that one unit is a factor of ten. What is called IC90 is the concentration at which the effect reaches the 90% level. Take `CC(c1ccc(-n2cncn2)cc1)N(C)c1ncnc2ccsc12` (stereo unspecified): the concentration for an effect of 90% (IC90) is more than 10 µM. Further, under “HEPG2TOX_HILL_SLOPE 9.54, HEPG2TOX_R_SQUARED 0.431, PBLUC_HILL_SLOPE 1.32, 1.56, PBLUC_R_SQUARED 0.780, 0.216, read-out: LUCIFERASE INFECTION ASSAY - IC50”, the pIC50 was 5.43.

As for `O=C(Nc1cccc(F)c1)N1CCC2(CC1)OCc1cc(-c3ccco3)ccc1O2`, the IC90 was more than 8.08 µM. Moreover, under setting [1], the negative-log IC50 (pIC50) is less than 5.09.

For the compound `CC(=O)c1ccc(-c2ccc(C(=O)N3CCC(c4nc5ccccc5o4)CC3)o2)cc1`, the IC90 was more than 10 µM. For the same compound, the pIC50 (HEPG2TOX_HILL_SLOPE 6.21, HEPG2TOX_R_SQUARED 0.873, read-out: LUCIFERASE INFECTION ASSAY - IC50) is less than 5.00.

In the case of `O=C1NC(c2ccccc2)=C(C(=O)C(F)(F)F)C(c2ccc(OC(F)F)cc2)N1` (stereo unspecified), the concentration for an effect of 90% (IC90) was more than 10 µM. Besides, the pIC50 under setting [1] was less than 5.00.

Consider `Cc1onc(-c2c(F)cccc2Cl)c1C(=O)ON=C1C2CC3CC(C2)CC1C3`, for which the IC90 came out at 4.84 µM. The negative-log IC50 (pIC50) (PBLUC_HILL_SLOPE 4.6, PBLUC_R_SQUARED 0.401, read-out: LUCIFERASE INFECTION ASSAY - IC50) was 5.52.

Regarding `O=[N+]([O-])c1cnc(Sc2nnc(O)n2C2CCCCC2)s1`, the IC90 was 9.75 µM. The negative logarithm of the IC50 (pIC50) (FFLUC_HILL_SLOPE 1.98, FFLUC_R_SQUARED 0.448, HEPG2TOX_HILL_SLOPE 4.19, HEPG2TOX_R_SQUARED 0.922, PBLUC_HILL_SLOPE 12.6, PBLUC_R_SQUARED 0.344, read-out: LUCIFERASE INFECTION ASSAY - IC50) was 5.09.

Turning to `Cn1c(Nc2ccccc2)nc2cnc(-c3ccc(Cl)cc3)cc21`, the IC90 was more than 10 µM. For the setting “PBLUC_HILL_SLOPE 23.8, PBLUC_R_SQUARED 0.319, read-out: LUCIFERASE INFECTION ASSAY - IC50”, the pIC50 was 5.01.

For `CNC(=O)c1ccc(CN(Cc2ccco2)Cc2cc3ccc(C)c(C)c3nc2Cl)cc1`, the IC90 was found to be 1.48 µM. Moreover, for the setting “PBLUC_HILL_SLOPE 9.58, PBLUC_R_SQUARED 0.657, read-out: LUCIFERASE INFECTION ASSAY - IC50”, the pIC50 is 6.13.

As to `Cc1ccc(S(=O)(=O)Nc2ccc(Nc3nccn4c(-c5cccc(OC(F)(F)F)c5)cnc34)cc2)cc1`, the IC90 is more than 6.12 µM. Also, the negative-log IC50 (pIC50) (PBLUC_HILL_SLOPE 2.83, PBLUC_R_SQUARED 0.42, read-out: LUCIFERASE INFECTION ASSAY - IC50) is 5.52.

Turning to `COc1cc(OC)cc(-c2cnc3cnc(-c4ccccc4C)cn23)c1`, the IC90 was 2.62 µM. Further, the negative logarithm of the IC50 (pIC50) (HEPG2TOX_HILL_SLOPE 1.68, HEPG2TOX_R_SQUARED 0.933, PBLUC_HILL_SLOPE 2.21, PBLUC_R_SQUARED 0.835, read-out: LUCIFERASE INFECTION ASSAY - IC50) was 6.01.

`COc1cccc(C2CNC(c3ccc(Cl)cc3)c3[nH]c4ccccc4c32)c1OC` (stereo unspecified): the concentration for an effect of 90% (IC90) stood at 5.44 µM. Further, the pIC50 (PBLUC_HILL_SLOPE 2.02, PBLUC_R_SQUARED 0.709, read-out: LUCIFERASE INFECTION ASSAY - IC50) is 5.74.

As for `COc1ccc(N(C(C)=O)c2nc(/C=C/C(=O)c3ccc(F)cc3)cs2)cc1`, the IC90 is more than 10 µM. Where the note is “FFLUC_HILL_SLOPE 11.2, FFLUC_R_SQUARED 0.397, read-out: LUCIFERASE INFECTION ASSAY - IC50”, the pIC50 was less than 5.00.

Consider `Cn1cnnc1Sc1ccc(/C=C/c2nc3ccccc3[nH]2)cc1[N+](=O)[O-]`, for which the concentration for an effect of 90% (IC90) was determined as 3.92 µM. The pIC50 (PBLUC_HILL_SLOPE 13.5, PBLUC_R_SQUARED 0.706, read-out: LUCIFERASE INFECTION ASSAY - IC50) was 5.48.

For `OCCNCc1cc(Cl)ccc1OCc1ccc(Cl)cc1Cl`, the IC90 was more than 8.31 µM. In addition, the pIC50 (HEPG2TOX_HILL_SLOPE 0.0281, HEPG2TOX_R_SQUARED 0.0269, read-out: LUCIFERASE INFECTION ASSAY - IC50) was less than 5.08.

As for `Cc1ccc(C(CCNCc2ccc(F)cc2)c2ccco2)cc1` (stereo unspecified), the IC90 is 0.384 µM. The pIC50 (HEPG2TOX_HILL_SLOPE 46.4, HEPG2TOX_R_SQUARED 0.442, PBLUC_HILL_SLOPE 99.4, PBLUC_R_SQUARED 0.619, read-out: LUCIFERASE INFECTION ASSAY - IC50) was 6.42.

On to `Cc1nc(Sc2ncnc3sc4c(c23)CCC4)sc1CC(N)=O`, for which the IC90 is 1.96 µM. The pIC50 (PBLUC_HILL_SLOPE 51.2, PBLUC_R_SQUARED 0.477, read-out: LUCIFERASE INFECTION ASSAY - IC50) was 5.73.

`Cc1nc(=O)c(CCC(=O)Nc2ncc(Cc3cccc(C)c3Cl)s2)c(C)[nH]1`: the IC90 was more than 10 µM. Further, under setting [1], the pIC50 was 5.06.

As to `CCC(C)(C)c1ccc(Oc2ccc(NC(=O)CSc3cccc[n+]3[O-])cc2)cc1`, the IC90 was more than 10 µM. In addition, the pIC50 under setting [1] is less than 5.00.

Consider `CC(=O)c1sc2sc(C#N)c(C)c2c1C`, for which the IC90 was more than 14 µM. Also, under setting [1], the pIC50 is less than 4.85.

With `Cc1cc(NC(=O)c2ccc(-c3cccc4ccccc34)s2)no1`, the IC90 was more than 10 µM. Also, under “PBLUC_HILL_SLOPE 2.6, PBLUC_R_SQUARED 0.519, read-out: LUCIFERASE INFECTION ASSAY - IC50”, the negative logarithm of the IC50 (pIC50) was 5.30.

With `CCN(CC)CCNC(=O)c1c(C)oc2c1C(=O)c1ccccc1C2=O`, the IC90 amounted to 1.15 µM. Also, the pIC50 (HEPG2TOX_HILL_SLOPE 5.67, HEPG2TOX_R_SQUARED 0.985, PBLUC_HILL_SLOPE 0.945, PBLUC_R_SQUARED 0.645, read-out: LUCIFERASE INFECTION ASSAY - IC50) was 6.95.

For the compound `CNC(=O)c1cccc(NC(=O)c2ccc3[nH]c4c(c3c2)CCCC4)c1`, the IC90 is more than 10 µM. The pIC50 (HEPG2TOX_HILL_SLOPE 15.2, HEPG2TOX_R_SQUARED 0.62, read-out: LUCIFERASE INFECTION ASSAY - IC50) was less than 5.00.

On to `NC(CCc1ccccc1)c1csc(NC(=O)Nc2cccc3ccccc23)n1` (stereo unspecified), for which the 90% effect concentration (IC90) is more than 8.2 µM. In addition, the negative-log IC50 (pIC50) under setting [1] is 5.29.

Turning to `CN(C)c1cccc(CNc2nccc3nc(-c4cccc(F)c4)[nH]c23)c1`, the 90% effect concentration (IC90) stood at 5.76 µM. Besides, for the setting “HEPG2TOX_HILL_SLOPE 3.96, HEPG2TOX_R_SQUARED 0.788, PBLUC_HILL_SLOPE 4.1, PBLUC_R_SQUARED 0.415, read-out: LUCIFERASE INFECTION ASSAY - IC50”, the pIC50 is 5.47.

Turning to `COc1cccc(CNC(=O)Nc2ccc3nc(Cc4ccccc4)nn3c2)c1`, the IC90 was more than 10 µM. Also, the negative-log IC50 (pIC50) (HEPG2TOX_HILL_SLOPE 13.6, HEPG2TOX_R_SQUARED 0.936, PBLUC_HILL_SLOPE 1.17, PBLUC_R_SQUARED 0.525, read-out: LUCIFERASE INFECTION ASSAY - IC50) is 5.67.

Consider `COc1ccc(C(C)C)cc1-c1cnc(N)c(-c2cccc(C(F)(F)F)c2)c1`, for which the 90% effect concentration (IC90) was more than 8.54 µM. The pIC50 (HEPG2TOX_HILL_SLOPE 7.33, HEPG2TOX_R_SQUARED 0.431, PBLUC_HILL_SLOPE 11.3, PBLUC_R_SQUARED 0.541, read-out: LUCIFERASE INFECTION ASSAY - IC50) is 5.10.

Take `S=C(NCc1ccccc1)N/N=C1/CCCCC1C1CCCCC1` (stereo unspecified): the IC90 is more than 10 µM. In addition, the pIC50 under setting [1] was less than 5.00.

Regarding `CN(C)c1ccc(/C=C(\C#N)C(=O)c2ccc(-n3nncc3C34CC5CC(CC(C5)C3)C4)cc2)cc1`, the 90% effect concentration (IC90) was more than 10 µM. Besides, the pIC50 (FFLUC_HILL_SLOPE 2.12, FFLUC_R_SQUARED 0.418, PBLUC_HILL_SLOPE 11.3, PBLUC_R_SQUARED 0.267, read-out: LUCIFERASE INFECTION ASSAY - IC50) was less than 5.00.

In the case of `Brc1ccc(CNc2ccc3ncccc3c2)cc1`, the IC90 is more than 10.5 µM. Besides, the pIC50 under setting [1] is less than 4.98.

`O=c1nc(Nc2ccc(SC(F)(F)F)cc2)c2ccccc2o1`: the concentration for an effect of 90% (IC90) worked out at 0.441 µM. The pIC50 (PBLUC_HILL_SLOPE 2.14, PBLUC_R_SQUARED 0.975, read-out: LUCIFERASE INFECTION ASSAY - IC50) is 6.80.

On to `CN(C)c1ccc(-c2cc(Nc3cccc(OCc4ccccc4)c3)ncn2)cc1`, for which the concentration for an effect of 90% (IC90) is 1.61 µM. Further, the pIC50 (HEPG2TOX_HILL_SLOPE 1.6, HEPG2TOX_R_SQUARED 0.897, PBLUC_HILL_SLOPE 1.97, PBLUC_R_SQUARED 0.838, read-out: LUCIFERASE INFECTION ASSAY - IC50) was 6.28.

In the case of `CCOC(=O)c1c(NC(=O)CNc2ccccc2CN(C)C2CCCCC2)sc(CC)c1C`, the 90% effect concentration (IC90) was more than 10 µM. The negative logarithm of the IC50 (pIC50) (PBLUC_HILL_SLOPE 1.16, PBLUC_R_SQUARED 0.382, read-out: LUCIFERASE INFECTION ASSAY - IC50) was 5.51.

Turning to `O=C(Nc1cccc(Cl)c1)OCc1ccccc1F`, the IC90 was more than 11.8 µM. Under setting [1], the pIC50 was less than 4.93.

In the case of `COc1cc(OC)cc(-c2cnc3cnc(-c4cccc(N)c4)cn23)c1`, the IC90 was more than 9.53 µM. The pIC50 (FFLUC_HILL_SLOPE 17.8, FFLUC_R_SQUARED 0.255, PBLUC_HILL_SLOPE 12.5, PBLUC_R_SQUARED 0.443, read-out: LUCIFERASE INFECTION ASSAY - IC50) was 5.03.

`CC(C)(C)c1cc2ncc(S(=O)(=O)c3ccc(Cl)cc3)c(N)n2n1`: the 90% effect concentration (IC90) is more than 9.04 µM. The pIC50 (HEPG2TOX_HILL_SLOPE 5.77, HEPG2TOX_R_SQUARED 0.0253, read-out: LUCIFERASE INFECTION ASSAY - IC50) is less than 5.04.

Regarding `Cc1nc(-c2ccc3c(c2)CC(=O)N3C)cs1`, the 90% effect concentration (IC90) was more than 10 µM. In addition, the negative-log IC50 (pIC50) under setting [1] is less than 5.00.

As to `Cc1cnc(Nc2ncnc3ccccc23)s1`, the IC90 was more than 10 µM. Further, the pIC50 under setting [1] was less than 5.00.

Regarding `N#CC(=C1NS(=O)(=O)c2ccccc21)c1nc(C23CC4CC(CC(C4)C2)C3)cs1`, the concentration for an effect of 90% (IC90) was 1.97 µM. In addition, under “FFLUC_HILL_SLOPE 0.216, FFLUC_R_SQUARED 0.688, PBLUC_HILL_SLOPE 0.978, PBLUC_R_SQUARED 0.875, read-out: LUCIFERASE INFECTION ASSAY - IC50”, the pIC50 is 6.68.
